Patent US10131652B2, “Pyrimidinyloxy benzene derivatives as herbicides” (E. I. DU PONT DE NEMOURS AND COMPANY, priority 2014, dated 2018)
Where two headings read alike, the source gives them in different places.

Columns and labels:
Format in all cases: in vivo
[1] = tested on: small-flower umbrella sedge (Cyperus difformis); test: Test C flooded paddy test plant response; conditions: Cyperus difformis; Flood, 250 g ai/ha; scale of 0 to 100 where 0 is no effect and 100 is complete control; 13 to 15 days; read-out: Sedge, Umbrella plant response rating
How it was run: (§1)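 Greenhouse paddy assay, 13–15 days. Treatment into 3 cm floodwater over 2-leaf plants; visual 0–100 rating against controls.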

[2] = tested on: ducksalad (Heteranthera limosa); test: Test C flooded paddy test plant response; conditions: Heteranthera limosa; Flood, 250 g ai/ha; scale of 0 to 100 where 0 is no effect and 100 is complete control; 13 to 15 days; read-out: Ducksalad plant response rating
How it was run: as §1

[3] = tested on: barnyardgrass (Echinochloa crus-galli); test: Test C flooded paddy test plant response; conditions: Echinochloa crus-galli; Flood, 250 g ai/ha; scale of 0 to 100 where 0 is no effect and 100 is complete control; 13 to 15 days; read-out: Barnyardgrass plant response rating
How it was run: as §1

[4] = tested on: rice (Oryza sativa); test: Test C flooded paddy test plant response; conditions: Oryza sativa; Flood, 250 g ai/ha; scale of 0 to 100 where 0 is no effect and 100 is complete control; 13 to 15 days; read-out: Rice plant response rating
How it was run: as §1

[5] = tested on: oilseed rape (Brassica napus); test: Test D pre-/postemergence plant response; conditions: Brassica napus, pre-emergence, Preemergence
Excerpt: (§2) Seeds of plant species selected from blackgrass (Alopecurus myosuroides), Italian ryegrass (Lolium multiflorum), winter wheat (Triticum aestivum), galium (catchweed bedstraw, Galium aparine), corn (Zea mays), large (Lg) crabgrass (Digitaria sanguinalis), giant foxtail (Setaria faberii), johnsongrass (Sorghum halepense), lambsquarters (Chenopodium album), morningglory (Ipomoea coccinea), yellow nutsedge (Cyperus esculentus), pigweed (Amaranthus retroflexus), ragweed (common ragweed, Ambrosia elatior), soybean (Glycine max), bamyardgrass (Echinochloa crus-galli), oilseed rape (Brassica napus), waterhemp (common waterhemp, Amaranthus rudis), and velvetleaf (Abutilon theophrasti) were planted into a blend of loam soil and sand and treated preemergence with test chemicals formulated in a non-phytotoxic solvent mixture which included a surfactant. At the same time, plants selected from these crop and weed species and also kochia (Kochia scoparia), wild oat (Avena fatua), and chickweed (common chickweed, Stellaria media) were planted in pots containing Redi-Earth® planting medium (Scotts Company, 14111 Scottslawn Road, Marysville, Ohio 43041) comprising spaghnum peat moss, vermiculite, wetting agent and starter nutrients and treated with postemergence applications of test chemicals formulated in the same manner. Plants ranged in height from 2 to 18 cm (1- to 4-leaf stage) for postemergence treatments. Treated plants and controls were maintained in a greenhouse for 13 to 15 days, after which time all species were compared to controls and visually evaluated. Plant response ratings, summarized in Table D, are based on a scale of 0 to 100 where 0 is no effect and 100 is complete control. A dash (-) response means no test result.

[6] = tested on: yellow nutsedge (Cyperus esculentus); test: Test D pre-/postemergence plant response; conditions: Cyperus, pre-emergence, Preemergence
Excerpt: as §2

[7] = tested on: galium (catchweed bedstraw, Galium aparine); test: Test D pre-/postemergence plant response; conditions: Galium, pre-emergence, Preemergence
Excerpt: as §2

[8] = tested on: johnsongrass (Sorghum halepense); test: Test D pre-/postemergence plant response; conditions: Sorghum halepense, pre-emergence, Preemergence
Excerpt: as §2

[9] = tested on: winter wheat (Triticum aestivum); test: Test D pre-/postemergence plant response; conditions: Triticum aestivum, pre-emergence, Preemergence
Excerpt: as §2

[10] = tested on: ragweed (common ragweed, Ambrosia elatior); test: Test D pre-/postemergence plant response; conditions: Ambrosia artemisiifolia, pre-emergence, Preemergence
Excerpt: as §2

[11] = tested on: corn (Zea mays); test: Test B pre-/postemergence plant response; conditions: Zea mays, post-emergence, 240 h
How it was run: (§3)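 Greenhouse pots, loam/sand soil; compound formulated with surfactant in non-phytotoxic solvent. Preemergence soil spray and postemergence spray at 1–2 leaf stage run simultaneously. Visual injury, 0–100, about 10 days post-treatment.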

[12] = tested on: wheat (Triticum aestivum); test: Test B pre-/postemergence plant response; conditions: Triticum aestivum, post-emergence, 240 h, read-out: Plant response rating, Wheat
How it was run: as §3

[13] = tested on: barnyardgrass (Echinochloa crus-galli); test: Test B pre-/postemergence plant response; conditions: for pest or weed control at 500 g/ha: 500 g ai/ha
How it was run: as §3

[14] = tested on: giant foxtail (Setaria faberii); test: Test B pre-/postemergence plant response; conditions: for pest or weed control at 500 g/ha: 500 g ai/ha
How it was run: as §3

[15] = tested on: pigweed (Amaranthus retroflexus); test: Test B pre-/postemergence plant response; conditions: for pest or weed control at 500 g/ha: 500 g ai/ha
How it was run: as §3

[16] = 125 g ai/ha, postemergence, 0 to 100 scale, 0 no effect, 100 complete control
[17] = Postemergence, 500 g ai/ha, 0 to 100 scale (0 no effect, 100 complete control)
[18] = Preemergence, 125 g ai/ha, 0 to 100 scale (0 no effect, 100 complete control)

## N#Cc1cccc(Oc2ncc(Cl)cn2)c1-c1cc(C(F)(F)F)ccn1 [Compound 158, 5-chloro-2-[3-cyano-2-[4-(trifluoromethyl)-2-pyridinyl]phenoxy]pyrimidine]
[1]
  pest or weed control at 250 g/ha: 0%
[2]
  pest or weed control at 250 g/ha: 50%
[3]
  pest or weed control at 250 g/ha: 0%
[4]
  plant injury at 250 g/ha: 0%
[5]; 125 g ai/ha, read-out: Plant response rating (scale 0 to 100), Oilseed Rape
  plant injury at 125 g/ha: 98%
[5]; 16 g ai/ha, scale 0 to 100 (0 no effect, 100 complete control), read-out: Plant response rating, Oilseed Rape
  plant injury at 16 g/ha: 40%
[5]; 31 g ai/ha, scale 0 to 100 (0 no effect, 100 complete control), read-out: Plant response rating, Oilseed Rape
  plant injury at 31 g/ha: 50%
[5]; 62 g ai/ha, scale 0 to 100 (0 no effect, 100 complete control), read-out: Plant response rating, Oilseed Rape
  plant injury at 62 g/ha: 90%
[6]; 125 g ai/ha, read-out: Plant response rating (scale 0 to 100), Nutsedge, Yellow
  pest or weed control at 125 g/ha: 5%
[6]; 16 g ai/ha, scale 0 to 100 (0 no effect, 100 complete control), read-out: Plant response rating, Nutsedge, Yellow
  pest or weed control at 16 g/ha: 0%
[6]; 31 g ai/ha, scale 0 to 100 (0 no effect, 100 complete control), read-out: Plant response rating, Nutsedge, Yellow
  pest or weed control at 31 g/ha: 0%
[6]; 62 g ai/ha, scale 0 to 100 (0 no effect, 100 complete control), read-out: Plant response rating, Nutsedge, Yellow
  pest or weed control at 62 g/ha: 5%
[7]; 125 g ai/ha, read-out: Plant response rating (scale 0 to 100), Galium
  pest or weed control at 125 g/ha: 100%
[7]; 16 g ai/ha, scale 0 to 100 (0 no effect, 100 complete control), read-out: Plant response rating, Galium
  pest or weed control at 16 g/ha: 0%
[7]; 31 g ai/ha, scale 0 to 100 (0 no effect, 100 complete control), read-out: Plant response rating, Galium
  pest or weed control at 31 g/ha: 50%
[7]; 62 g ai/ha, scale 0 to 100 (0 no effect, 100 complete control), read-out: Plant response rating, Galium
  pest or weed control at 62 g/ha: 100%
[8]; 125 g ai/ha, read-out: Plant response rating (scale 0 to 100), Johnsongrass
  pest or weed control at 125 g/ha: 40%
[8]; 16 g ai/ha, scale 0 to 100 (0 no effect, 100 complete control), read-out: Plant response rating, Johnsongrass
  pest or weed control at 16 g/ha: 0%
[8]; 31 g ai/ha, scale 0 to 100 (0 no effect, 100 complete control), read-out: Plant response rating, Johnsongrass
  pest or weed control at 31 g/ha: 0%
[8]; 62 g ai/ha, scale 0 to 100 (0 no effect, 100 complete control), read-out: Plant response rating, Johnsongrass
  pest or weed control at 62 g/ha: 10%
[9]; 125 g ai/ha, read-out: Plant response rating (scale 0 to 100), Wheat
  plant injury at 125 g/ha: 0%
[9]; 16 g ai/ha, scale 0 to 100 (0 no effect, 100 complete control), read-out: Plant response rating, Wheat
  plant injury at 16 g/ha: 0%
[9]; 31 g ai/ha, scale 0 to 100 (0 no effect, 100 complete control), read-out: Plant response rating, Wheat
  plant injury at 31 g/ha: 0%
[9]; 62 g ai/ha, scale 0 to 100 (0 no effect, 100 complete control), read-out: Plant response rating, Wheat
  plant injury at 62 g/ha: 0%
[10]; 125 g ai/ha, read-out: Plant response rating (scale 0 to 100), Ragweed
  pest or weed control at 125 g/ha: 50%
[10]; 16 g ai/ha, scale 0 to 100 (0 no effect, 100 complete control), read-out: Plant response rating, Ragweed
  pest or weed control at 16 g/ha: 80%
[10]; 31 g ai/ha, scale 0 to 100 (0 no effect, 100 complete control), read-out: Plant response rating, Ragweed
  pest or weed control at 31 g/ha: 60%
[10]; 62 g ai/ha, scale 0 to 100 (0 no effect, 100 complete control), read-out: Plant response rating, Ragweed
  pest or weed control at 62 g/ha: 70%
[11]; [16]
  Corn plant response rating (crop injury, 0 = no effect, 100 = complete kill) at 125 g/ha: 30%
[11]; [17]
  Corn plant response rating (crop injury, 0 = no effect, 100 = complete kill) at 500 g/ha: 90%
[12]; [16]
  plant injury at 125 g/ha: 20%
[12]; [17]
  plant injury at 500 g/ha: 70%
[13]; Echinochloa crus-galli, post-emergence, 240 h, 125 g ai/ha, postemergence, 0 to 100 scale, 0 no effect, 100 complete control, read-out: Plant response rating, Barnyardgrass
  pest or weed control at 125 g/ha: 60%
[13]; Echinochloa crus-galli, post-emergence, 240 h, Postemergence, 0 to 100 scale (0 no effect, 100 complete control), read-out: Plant response rating, Barnyardgrass
  pest or weed control at 500 g/ha: 100%
[13]; Echinochloa crus-galli, pre-emergence, 240 h, Preemergence, 0 to 100 scale where 0 is no effect and 100 is complete control, read-out: Plant response rating, Barnyardgrass
  pest or weed control at 500 g/ha: 100%
[13]; [18]
  Barnyardgrass plant response rating: 90
[14]; [18]
  Foxtail, Giant plant response rating: 90
[14]; Setaria faberi, post-emergence, 240 h, 125 g ai/ha, postemergence, 0 to 100 scale, 0 no effect, 100 complete control, read-out: Plant response rating, Foxtail, Giant
  pest or weed control at 125 g/ha: 50%
[14]; Setaria faberi, post-emergence, 240 h, Postemergence, 0 to 100 scale (0 no effect, 100 complete control), read-out: Plant response rating, Foxtail, Giant
  pest or weed control at 500 g/ha: 100%
[14]; Setaria faberi, pre-emergence, 240 h, Preemergence, 0 to 100 scale where 0 is no effect and 100 is complete control, read-out: Plant response rating, Foxtail, Giant
  pest or weed control at 500 g/ha: 100%
[15]; Amaranthus retroflexus, post-emergence, 240 h, 125 g ai/ha, postemergence, 0 to 100 scale, 0 no effect, 100 complete control, read-out: Plant response rating, Pigweed
  pest or weed control at 125 g/ha: 80%
[15]; Amaranthus retroflexus, post-emergence, 240 h, Postemergence, 0 to 100 scale (0 no effect, 100 complete control), read-out: Plant response rating, Pigweed
  pest or weed control at 500 g/ha: 100%
[15]; Amaranthus retroflexus, pre-emergence, 240 h, Preemergence, 0 to 100 scale where 0 is no effect and 100 is complete control, read-out: Plant response rating, Pigweed
  pest or weed control at 500 g/ha: 100%
[15]; [18]
  Pigweed plant response rating: 90
